Assay results reported in patent US20170157212A1, “CDK MODULATORS AND METHODS FOR THE TREATMENT OF CANCER” (Salk Institute for Biological Studies, priority 2015, published 2017).
Entries after “also recorded” stand apart in the source; their conditions may differ.

Columns and labels:
CDK9 = molecular target: T1, CDK9 (Homo sapiens, UniProt P50750); test: Co-immunoprecipitation of CRIF1 with CDK9; type: binding
T1 construct: endogenous in cells
From the text: FIGS. 5A-5I. The Mitochondrial OX-PHOS Regulator, CRIF1, is a Novel Subunit of the Human CDK12 Kinase Complex. (A) Identification of CRIF1 as a near-stoichiometric subunit of the native CDK12 kinase complex. MudPIT analysis of CDK12 complexes from HEK293 cells that stably express HA-tagged full-length human CDK12. The HA-CDK12 complex was affinity-purified using anti-HA antibody and visualized by SDS-PAGE and silver-stain. (B) List of the identified proteins in the HA-CDK12 complex from (A). (C) Endogenous CRIF1 co-immunoprecipitates with native CDK12 in U2OS cell extracts. Shown is an immunoblot analysis of CRIF1, CCNK, and the chaperone proteins CDC37 and HSP90 in an anti-CDK12 immunoprecipitate. (D) CRIF1 is a specific subunit of the CDK12 complex. Native CRIF1 was immunoprecipitated from U2OS cells using an anti-CRIF1 antibody and analyzed by co-immunoprecipitation for association with various CDKs, as indicated. […] FLAG-CRIF1 proteins containing different C-terminal truncations were co-expressed with HA-CDK12 (aa 985-1490) and analyzed for binding by co-immunoprecipitation and immunoblot. […] Cell viability was analyzed after 72 hr. […] Expression of the mitochondrial MTCO-1 (COX1) protein was assessed using two different antisera. […] Each fraction (T; total, C:cytosolic, M:membrane/organelle, and N:nuclear) was analyzed by immunoblot using the indicated antibodies. […]

CDK12 = test: In vitro kinase assay: CDK12 phosphorylation of recombinant 4E-BP1 (S65, T70); type: biochemical, human; conditions: reactions with CDK12 and mTORC1/Raptor, dose-dependent
Chain of CDK12 (Q9NYV4 whole entry): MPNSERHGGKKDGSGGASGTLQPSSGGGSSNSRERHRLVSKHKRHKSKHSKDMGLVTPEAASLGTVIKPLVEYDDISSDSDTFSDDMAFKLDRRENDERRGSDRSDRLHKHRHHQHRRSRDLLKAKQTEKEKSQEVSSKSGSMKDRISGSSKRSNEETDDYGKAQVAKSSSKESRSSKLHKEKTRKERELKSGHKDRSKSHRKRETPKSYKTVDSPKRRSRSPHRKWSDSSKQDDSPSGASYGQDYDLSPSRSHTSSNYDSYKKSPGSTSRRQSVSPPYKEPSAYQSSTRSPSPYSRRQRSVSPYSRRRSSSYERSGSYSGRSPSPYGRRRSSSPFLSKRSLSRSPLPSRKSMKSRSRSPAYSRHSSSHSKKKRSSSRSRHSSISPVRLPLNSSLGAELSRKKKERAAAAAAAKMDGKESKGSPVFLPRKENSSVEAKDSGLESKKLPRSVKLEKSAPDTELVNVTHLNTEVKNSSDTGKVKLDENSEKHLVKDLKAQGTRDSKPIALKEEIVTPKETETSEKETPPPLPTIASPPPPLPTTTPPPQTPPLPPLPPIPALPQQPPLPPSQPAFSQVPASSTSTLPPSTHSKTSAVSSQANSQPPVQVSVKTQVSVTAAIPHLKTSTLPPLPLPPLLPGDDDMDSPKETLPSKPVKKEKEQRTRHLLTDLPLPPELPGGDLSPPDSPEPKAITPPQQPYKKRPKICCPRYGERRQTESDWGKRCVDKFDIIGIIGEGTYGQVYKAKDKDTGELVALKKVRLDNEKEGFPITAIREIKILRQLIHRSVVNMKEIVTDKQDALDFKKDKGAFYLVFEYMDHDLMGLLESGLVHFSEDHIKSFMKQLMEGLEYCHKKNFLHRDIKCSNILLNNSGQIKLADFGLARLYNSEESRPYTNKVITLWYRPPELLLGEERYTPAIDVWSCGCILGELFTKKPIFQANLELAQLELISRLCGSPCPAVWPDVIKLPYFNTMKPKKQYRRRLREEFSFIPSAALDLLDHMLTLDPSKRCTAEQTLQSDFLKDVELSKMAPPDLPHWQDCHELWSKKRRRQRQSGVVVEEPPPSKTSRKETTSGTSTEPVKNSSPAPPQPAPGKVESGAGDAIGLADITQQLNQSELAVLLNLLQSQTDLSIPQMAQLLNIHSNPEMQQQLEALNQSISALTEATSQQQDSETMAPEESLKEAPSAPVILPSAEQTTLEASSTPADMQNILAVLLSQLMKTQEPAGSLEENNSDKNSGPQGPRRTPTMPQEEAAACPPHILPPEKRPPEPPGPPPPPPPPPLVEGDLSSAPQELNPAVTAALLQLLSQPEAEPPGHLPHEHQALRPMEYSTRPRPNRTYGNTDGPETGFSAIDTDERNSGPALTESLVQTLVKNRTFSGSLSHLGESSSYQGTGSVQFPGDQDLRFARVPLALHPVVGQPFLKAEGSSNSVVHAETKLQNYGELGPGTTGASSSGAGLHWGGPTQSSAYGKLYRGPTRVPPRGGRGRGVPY
Chain of CDK12 (O75909 whole entry partner): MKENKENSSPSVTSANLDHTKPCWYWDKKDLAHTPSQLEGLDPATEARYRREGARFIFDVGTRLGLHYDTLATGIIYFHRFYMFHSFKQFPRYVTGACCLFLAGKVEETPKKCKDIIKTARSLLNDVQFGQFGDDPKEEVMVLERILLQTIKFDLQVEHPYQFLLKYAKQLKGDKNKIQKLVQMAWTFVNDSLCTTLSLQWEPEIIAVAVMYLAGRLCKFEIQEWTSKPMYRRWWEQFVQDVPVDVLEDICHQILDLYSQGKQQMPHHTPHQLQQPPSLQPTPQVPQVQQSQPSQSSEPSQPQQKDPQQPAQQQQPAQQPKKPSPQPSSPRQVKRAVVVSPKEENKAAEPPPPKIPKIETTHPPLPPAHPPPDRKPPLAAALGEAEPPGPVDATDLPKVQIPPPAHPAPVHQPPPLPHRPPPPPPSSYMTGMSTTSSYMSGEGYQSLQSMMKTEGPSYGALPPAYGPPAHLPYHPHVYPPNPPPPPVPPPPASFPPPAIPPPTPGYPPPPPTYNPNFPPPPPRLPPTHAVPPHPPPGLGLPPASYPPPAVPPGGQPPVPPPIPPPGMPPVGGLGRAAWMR
From the text: (A) CRIF1 and CDK12 have opposite effects on global RNAPII CTD-Ser2P levels in vivo. U2OS cells were transfected with indicated siRNAs for 48 hr, and RNAPII phosphorylation was monitored by immunoblot using phospho-specific CTD (Ser2P and Ser5P) antibodies. (B) Knockdown of CRIF1 up-regulates CHK1 expression and induction of p53. […] (C) Analysis of steady-state mRNA levels by qRT-PCR in extracts from U2OS cells exposed to control (CTL) or CRIF1-specific siRNAs, as indicated. (D) Depletion of CRIF1 enhances 4E-BP1 phosphorylation at S65 and T70 in vivo, as assessed by immunoblot using phospho-specific antibodies. (E) CRIF1 inhibits RNAPII CTD-Ser2 phosphorylation by CDK12 complexes in vitro. The human GST-CTD (52 repeat) protein was incubated in vitro with the affinity-purified HA-CDK12 kinase complex in the absence or presence of increasing levels of purified recombinant CRIF1, and analyzed by immunoblot with the indicated antisera. […] Analysis of GST-CTD Ser2 phosphorylation was carried out as described in (E), using the affinity-purified FLAG-CDK9 kinase. (G) CRIF1 inhibits 4E-BP1 phosphorylation by CDK12 in vitro. […] was monitored by immunoblot in the absence or in the presence of different levels of affinity-purified recombinant CRIF1. […]

T1 sequence (P50750 whole entry): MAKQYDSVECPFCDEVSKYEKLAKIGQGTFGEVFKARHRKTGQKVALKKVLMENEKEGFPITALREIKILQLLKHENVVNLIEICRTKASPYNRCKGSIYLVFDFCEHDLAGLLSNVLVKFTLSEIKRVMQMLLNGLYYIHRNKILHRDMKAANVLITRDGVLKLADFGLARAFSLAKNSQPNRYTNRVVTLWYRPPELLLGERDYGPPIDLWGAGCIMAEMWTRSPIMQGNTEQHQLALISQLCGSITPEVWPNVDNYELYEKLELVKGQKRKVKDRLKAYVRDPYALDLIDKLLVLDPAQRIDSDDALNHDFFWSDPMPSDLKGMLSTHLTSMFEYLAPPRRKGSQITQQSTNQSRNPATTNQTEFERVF

S65 and T70 phosphorylation of 4E-BP1 by CDK12 (CDK12): inhibits | S65 and T70 phosphorylation of 4E-BP1 by CDK12 (CDK12; listed as rCRIF1): potently and selectively inhibited
Substance: Growth Arrest and DNA Damage-Inducible Proteins-Interacting Protein 1 [CRIF1]
presence in / binding to CDK9 complexes (CDK9): not present; also recorded: does not bind
